In BindingDB's records for doi:10.7270/Q29Z939R (The Scripps Research Institute Molecular Screening Center, 2009):

Molecular target: T1, Core protein (Hepacivirus C, UniProt Q2Q167)
T1 sequence (Q2Q167 whole entry): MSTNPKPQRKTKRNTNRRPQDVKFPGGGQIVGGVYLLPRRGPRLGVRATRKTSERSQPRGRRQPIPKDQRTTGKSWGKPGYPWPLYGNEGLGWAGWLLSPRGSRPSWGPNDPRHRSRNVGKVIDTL
Test: disruption of hepatitis C core self-association – biochemical, TR-FRET, dose response (AID 2159)

| Compound | IC50 [µM] |
| --- | --- |
| CCOC1=CC(=Cc2c(-c3ccccc3)[nH]n(-c3nc(-c4ccc(Br)cc4)cs3)c2=O)C=CC1=O | > 49.8 |
| Cc1sccc1C1C(C#N)C(=N)SC(=N)C1C#N (configuration not stated) [2,6-diamino-4-(2-methyl-3-thiophenyl)-4H-thiopyran-3,5-dicarbonitrile] | > 49.8 |
| Cc1cc(C)n2c(SCC(=O)C(C#N)c3nc4ccccc4[nH]3)nnc2n1 (configuration not stated) [2-(1,3-dihydrobenzimidazol-2-ylidene)-4-[(5,7-dimethyl-[1,2,4]triazolo[4,3-a]pyrimidin-3-yl)sulfanyl]-3-oxidanylidene-butanenitrile] | > 49.8 |
| O=C1Nc2ccc([N+](=O)[O-])cc2/C1=N/NC(=O)c1cc(-c2ccccc2Cl)nc2ccccc12 [2-(2-chlorophenyl)-N'-(2-keto-5-nitro-indol-3-yl)cinchoninohydrazide] | > 49.8 |
| O=[N+]([O-])c1cc([CH+][N-]n2c(O)csc2=S)ccc1Cl [3-[(4-chloranyl-3-nitro-phenyl)methylideneamino]-2-sulfanylidene-1,3-thiazolidin-4-one] | > 49.8 |
| Cc1cccc2c1NC(=O)C2=NNc1ccc(S(=O)(=O)Nc2ccc(Cl)cc2)cc1[N+](=O)[O-] [MLS000393762] | > 49.8 |
| COc1cccc(CN=Nc2ncnc3c2[nH]c2ccc(C)cc23)c1OC [SMR000439805] | > 49.8 |
